Data from ChEMBL document CHEMBL5120865, “Exploration of 6-methyl-7-(Hetero)Aryl-7-Deazapurine ribonucleosides as antileishmanial agents” (Eur J Med Chem, 2022).

Legend:
Leishmania infantum [1] = experiment: Antileishmanial activity against intracellular Leishmania infantum MHOM/MA(BE)/67 amastigotes infected in golden hamster assessed as reduction of amastigote burdens in spleen at 40 mg/kg, po SID for 5 days by geimsa staining based microscopic analysis; type: functional; set-up: scale not given: the % may be the effect or the level left; conditions: time 5 day
Leishmania infantum [2] = experiment: Antileishmanial activity against intracellular Leishmania infantum MHOM/MA(BE)/67 amastigotes infected in golden hamster assessed as reduction of amastigote burdens in liver at 40 mg/kg, po SID for 5 days by geimsa staining based microscopic analysis; type: functional; set-up: scale not given: the % may be the effect or the level left; conditions: time 5 day
Leishmania infantum [3] = experiment: Antileishmanial activity against intracellular Leishmania infantum MHOM/MA(BE)/67 amastigotes infected in golden hamster assessed as reduction of amastigote burdens in bone marrow at 40 mg/kg, po SID for 5 days by geimsa staining based microscopic analysis; type: functional; set-up: scale not given: the % may be the effect or the level left; conditions: time 5 day
Leishmania infantum [4] = experiment: Antileishmanial activity against intracellular Leishmania infantum MHOM/MA(BE)/67 ITMAP263 amastigotes infected in Swiss mouse peritoneal macrophage assessed as inhibition of parasite growth measured after 5 days by geimsa staining based microscopic analysis; type: functional, organism-based; conditions: MHOM/MA(BE)/67 ITMAP263, Peritoneal macrophage, 120 h
[5] = Metabolic stability in mouse liver microsomes S9 fraction assessed as UGT-mediated metabolism by measuring parent compound remaining measured after 30 mins in presence of NADPH; type: ADME, subcellular; conditions: read-out: Stability
Cytochrome P450 [6] = biological target: T1, Cytochrome P450 (Homo sapiens, UniProt P04798+P05177+P05181+P08684+P10632+P10635+P11509+P11712+P13584+P20813+P20815+P20853+P24462+P24903+P33260+P33261+P51589+P78329+P98187+Q02928+Q08477+Q16678+Q16696+Q5TCH4+Q6VVX0+Q7Z449+Q8TAV3+Q96SQ9+Q9HB55); experiment: Metabolic stability in human liver microsomes S9 fraction assessed as CYP450-mediated metabolism by measuring parent compound remaining measured after 60 mins in presence of NADPH; type: ADME, subcellular; conditions: read-out: Stability
[7] = Metabolic stability in mouse liver microsomes S9 fraction assessed as CYP450-mediated metabolism by measuring parent compound remaining measured after 30 mins in presence of NADPH; type: ADME, subcellular; conditions: read-out: Stability
[8] = Cytotoxicity against Swiss mouse peritoneal macrophages assessed as reduction in cell viability measured after 5 days by microscopic analysis; type: toxicity, cell-based, Peritoneal macrophage; conditions: time 5 day
[9] = Metabolic stability in mouse liver microsomes S9 fraction assessed as CYP450-mediated metabolism by measuring parent compound remaining measured after 15 mins in presence of NADPH; type: ADME, subcellular; conditions: read-out: Stability
Leishmania infantum [10] = experiment: (§1) Antileishmanial activity against sodium stibogluconate, potassium antimonyl tartrate and PMM resistant intracellular Leishmania infantum MHOM/FR/96/LEM3323-CI4 PMM promastigotes infected in Swiss mouse peritoneal macrophages assessed as inhibition of parasite growth measured after 96 hrs by microscopic analysis; type: functional, organism-based; conditions: Peritoneal macrophage
[11] = Metabolic stability in mouse liver microsomes S9 fraction assessed as UGT-mediated metabolism by measuring parent compound remaining measured after 15 mins in presence of NADPH; type: ADME, subcellular; conditions: read-out: Stability
Leishmania infantum [12] = experiment: as §1, with “and MIL” for “and PMM”, “MHOM/FR/96/LEM3323-CI4 MIL5C13” for “MHOM/FR/96/LEM3323-CI4 PMM”; type: functional, organism-based; conditions: MHOM/FR/96/LEM3323-CI4 MIL5C13, Peritoneal macrophage
[13] = Metabolic stability in golden hamster liver microsomes S9 fraction assessed as UGT-mediated metabolism by measuring parent compound remaining measured after 30 mins in presence of NADPH; type: ADME, subcellular, Mesocricetus auratus; conditions: read-out: Stability
[14] = Selectivity index, ratio of CC50 for Cytotoxicity against Swiss mouse peritoneal macrophages to EC50 for intracellular Leishmania infantum MHOM/MA(BE)/67 ITMAP263 amastigotes infected in Swiss mouse peritoneal macrophages; type: toxicity, cell-based; conditions: read-out: Ratio CC50/EC50
[15] = Metabolic stability in golden hamster liver microsomes S9 fraction assessed as CYP450-mediated metabolism by measuring parent compound remaining measured after 30 mins in presence of NADPH; type: ADME, subcellular, Mesocricetus auratus; conditions: read-out: Stability
Cytochrome P450 [16] = biological target: T1, Cytochrome P450; experiment: Metabolic stability in human liver microsomes S9 fraction assessed as CYP450-mediated metabolism by measuring parent compound remaining measured after 30 mins in presence of NADPH; type: ADME, subcellular; conditions: read-out: Stability
Leishmania infantum [17] = experiment: as §1, with “stibogluconate and” for “stibogluconate,”, “tartrate” for “tartrate and PMM”, “MHOM/FR/96/LEM3323-CI4” for “MHOM/FR/96/LEM3323-CI4 PMM”; type: functional, organism-based; conditions: MHOM/FR/96/LEM3323-CI4, Peritoneal macrophage
[18] = Metabolic stability in golden hamster liver microsomes S9 fraction assessed as UGT-mediated metabolism by measuring parent compound remaining measured after 60 mins in presence of NADPH; type: ADME, subcellular, Mesocricetus auratus; conditions: read-out: Stability
[19] = Metabolic stability in mouse liver microsomes S9 fraction assessed as CYP450-mediated metabolism by measuring parent compound remaining measured after 60 mins in presence of NADPH; type: ADME, subcellular; conditions: read-out: Stability
[20] = Metabolic stability in golden hamster liver microsomes S9 fraction assessed as CYP450-mediated metabolism by measuring parent compound remaining measured after 15 mins in presence of NADPH; type: ADME, subcellular, Mesocricetus auratus; conditions: read-out: Stability
Cytochrome P450 [21] = biological target: T1, Cytochrome P450; experiment: Metabolic stability in human liver microsomes S9 fraction assessed as CYP450-mediated metabolism by measuring parent compound remaining measured after 15 mins in presence of NADPH; type: ADME, subcellular; conditions: read-out: Stability
[22] = Metabolic stability in golden hamster liver microsomes S9 fraction assessed as CYP450-mediated metabolism by measuring parent compound remaining measured after 60 mins in presence of NADPH; type: ADME, subcellular, Mesocricetus auratus; conditions: read-out: Stability
Trypanosoma cruzi = experiment: Antitrypanosomal activity against nifurtimox-sensitive Tulahuen CL2 amastigotes expressing beta galactosidase infected in human MRC5 cells assessed as inhibition of parasite growth using chlorophenol red beta-D-galactopyranoside as substrate and measured after 7 days by spectrophotometric analysis; type: functional, organism-based; conditions: Tulahuen CL2, MRC5, 168 h, read-out: EC50
[23] = biological target: T2, UDP-glucuronosyltransferases (UGTs) (Homo sapiens, UniProt O60656+O75310+O75795+P06133+P0DTE4+P0DTE5+P16662+P19224+P22309+P22310+P35503+P35504+P36537+P54855+Q6UWM9+Q9BY64+Q9HAW7+Q9HAW8+Q9HAW9); experiment: Metabolic stability in human liver microsomes S9 fraction assessed as UGT-mediated metabolism by measuring parent compound remaining measured after 15 mins in presence of NADPH; type: ADME, subcellular; conditions: read-out: Stability
[24] = Metabolic stability in mouse liver microsomes S9 fraction assessed as UGT-mediated metabolism by measuring parent compound remaining measured after 60 mins in presence of NADPH; type: ADME, subcellular; conditions: read-out: Stability
[25] = Cytotoxicity against human MRC5 cells assessed as reduction in cell viability incubated for 3 days by resazurin dye based fluorescence analysis; type: toxicity; conditions: time 3 day
[26] = Metabolic stability in golden hamster liver microsomes S9 fraction assessed as UGT-mediated metabolism by measuring parent compound remaining measured after 15 mins in presence of NADPH; type: ADME, subcellular, Mesocricetus auratus; conditions: read-out: Stability
[27] = biological target: T2, UDP-glucuronosyltransferases (UGTs); experiment: Metabolic stability in human liver microsomes S9 fraction assessed as UGT-mediated metabolism by measuring parent compound remaining measured after 60 mins in presence of NADPH; type: ADME, subcellular; conditions: read-out: Stability
[28] = Selectivity index, ratio of CC50 for cytotoxicity against human MRC5 cells to EC50 for Trypanosoma cruzi Tulahuen CL2 amastigotes expressing beta galactosidase infected in human MRC5 cells; type: toxicity, cell-based; conditions: read-out: Ratio CC50/EC50
[29] = biological target: T2, UDP-glucuronosyltransferases (UGTs); experiment: Metabolic stability in human liver microsomes S9 fraction assessed as UGT-mediated metabolism by measuring parent compound remaining measured after 30 mins in presence of NADPH; type: ADME, subcellular; conditions: read-out: Stability

CCCCCCCCCCCCCCCCOP(=O)([O-])OCC[N+](C)(C)C [MILTEFOSINE]
Activity (Leishmania infantum [1]): 99.2%
Activity (Leishmania infantum [2]): 94%
Activity (Leishmania infantum [3]): 93.1%
EC50 (Leishmania infantum [4]): 8300 nM

Cc1ncnc2c1c(-c1ncccc1Cl)cn2[C@@H]1O[C@H](CO)[C@@H](O)[C@H]1O
remaining at 0.5 h [5]: 91%
remaining at 1 h (Cytochrome P450 [6]): 99%
remaining at 0.5 h [7]: 83%
CC50 at 120 h [8]: > 64000 nM
remaining at 0.25 h [9]: 98%
EC50 (Leishmania infantum [10]): 1460 nM
remaining at 0.25 h [11]: 92%
EC50 (Leishmania infantum [12]): 730 nM
remaining at 0.5 h [13]: 96%
selectivity ratio [14]: > 50
remaining at 0.5 h [15]: 98%
remaining at 0.5 h (Cytochrome P450 [16]): 100%
EC50 (Leishmania infantum [17]): 670 nM
remaining at 1 h [18]: 96%
remaining at 1 h [19]: 74%
remaining at 0.25 h [20]: 86%
remaining at 0.25 h (Cytochrome P450 [21]): 107%
EC50 (Leishmania infantum [4]): 1200 nM
remaining at 1 h [22]: 90%
EC50 (Trypanosoma cruzi): 700 nM
remaining at 0.25 h [23]: 93%
remaining at 1 h [24]: 98%
CC50 at 72 h [25]: > 64000 nM
remaining at 0.25 h [26]: 95%
remaining at 1 h [27]: 101%
selectivity ratio [28]: > 91
remaining at 0.5 h [29]: 95%
